According to patent US10167453B2, “Saccharide oxidase, and production method for same and use of same” (AMANO ENZYME INC., priority 2012, dated 2019):
Like-named read-outs stand apart in the source and are kept apart here.

How the values were obtained:
[1] = molecular target: Acremonium chrysogenum NBRC30055-derived saccharide oxidase (Hapsidospora chrysogena, UniProt A0A086T4F9); test: Investigation of substrate specificity; format: biochemical
Protocol: Using each saccharide indicated in Table 4 shown below as a substrate and in the presence of oxygen, the protein purified in Example 1 described above was reacted for 5 minutes at 37° C. at pH 7.0, and the measurement was conducted in accordance with the aforementioned saccharide oxidase activity measuring method. In addition, regarding the activity toward the glucose as 100%, the relative value of the activity toward each saccharide was calculated, thereby evaluating the substrate specificity.

[2] = tested on: OC[C@H]1OC(O)[C@H](O)[C@@H](O)[C@@H]1O; test: purified protein, by the assay type; conditions: other: saccharide as substrate of the purified protein; pH 7.0; 37.0 °C
Text: Using the protein purified in the aforementioned Example together with glucose and maltose as substrates, the aforementioned saccharide oxidase activity method was used to measure the activity thereby obtaining Hanes-Woolf plots, from which each Michaelis constant (Km) was obtained.

[3] = Thermal inactivation after desugaring of egg white; format: physicochemical
Protocol: 100 μL of the desugared egg white was subjected to a heat treatment at a temperature of 54, 56, and 58° C. for 1, 3, 5, and 8 minutes, respectively, and then cooled on ice, and the residual activity of each enzyme was measured.

[4] = Investigation of thermostability; format: physicochemical
Protocol: (§1) Since a quinoneimine color having absorption band at a wavelength of 550 nm was formed when the enzymatic reaction advanced, the saccharide oxidase activity was measured by measuring the increase in the absorbance at a wavelength of 550 nm per minute.
The protein solution purified in the aforementioned Example 1 was subjected to a heat treatment for 15 minutes at a temperature of 20° C., 25° C., 30° C., 35° C., 37° C., 40° C., 45° C., 50° C., 55° C., 60° C., 65° C., 70° C., 75° C., and 80° C., and thereafter the residual activity was measured by the aforementioned saccharide oxidase activity method. Regarding the activity with no heat treatment as 100%, each value of the residual activity was calculated. The results are indicated in the drawing-substituting graph of FIG. 5.

[5] = Production of lactobionic acid (HPLC verification); format: biochemical; conditions: 3 U protein, 0.75 g lactose monohydrate, 23 hours, 40° C., 160 rpm
Protocol: 3 ml of a solution containing 0.75 g of lactose monohydrate, 0.225 g of potassium carbonate, and 3 U of the protein purified in the aforementioned Example 1 was added and shaken for 23 hours under the condition involving 40° C. and 160 rpm.
After the reaction, the sample was boiled for 10 minutes and then centrifuged at 15,000 rpm for 10 minutes. The resultant supernatant was filtered through a 0.45 μm filter and subjected to an HPLC analysis.

[6] = Investigation of pH stability; format: physicochemical; conditions: pH5.0 to pH10.5, 15 minutes at 37° C.; treatment at pH7.0 = 100%; maltose substrate
Protocol: as §1
The protein solution purified in the aforementioned Example 1 and the buffer solution of each pH used in the aforementioned Example 3 were mixed in equal volumes and treated for 15 minutes at 37° C., and thereafter the activity was measured by the aforementioned saccharide oxidase activity measuring method. As a substrate, maltose was used. In addition, regarding the activity when using monopotassium phosphate-sodium hydroxide buffer solution (pH7.0) for treatment as 100%, each relative value of the activity was calculated. The results are indicated in the drawing-substituting graph of FIG. 3.

[7] = relative activity 50% or higher versus glucose is judged satisfactory
[8] = saccharide as substrate, activity toward glucose = 100%, 37° C., pH 7.0, 5 minutes, in the presence of oxygen

## OC[C@H]1O[C@@H](O[C@H]2[C@H](O)[C@@H](O)[C@H](O)O[C@@H]2CO)[C@H](O)[C@@H](O)[C@@H]1O [D(+)-Cellobiose]
[1]; [7]
  effect of the saccharide oxidase on the substrate (in words): satisfactory effect

## O=C(CO)[C@@H](O)[C@H](O)[C@H](O)CO [D(−)-Fructose]
[1]; pH 7
  Relative activity (%): 0%
[1]; [7]
  effect of the saccharide oxidase on the substrate (in words): No effect

## O=C[C@H](O)[C@@H](O)[C@@H](O)[C@H](O)CO [Galactose]
[1]; [7]
  effect of the saccharide oxidase on the substrate (in words): satisfactory effect
[1]; [8]
  Relative activity (%): 79%
[1]; saccharide as substrate, activity toward glucose = 100%, 37° C., pH 7.0, 5 minutes, in the presence of oxygen, listed as galactose
  Relative activity (%): about 79%

## OC[C@H]1O[C@H](O[C@H]2[C@H](O)[C@@H](O)[C@@H](O[C@H]3[C@H](O)[C@@H](O)[C@@H](O[C@H]4[C@H](O)[C@@H](O)C(O)O[C@@H]4CO)O[C@@H]3CO)O[C@@H]2CO)[C@H](O)[C@@H](O)[C@@H]1O (some centres unmarked) [Maltotetraose]
[1]; [7]
  effect of the saccharide oxidase on the substrate (in words): satisfactory effect
[1]; [8]
  Relative activity (%): 60%
[1]; saccharide as substrate, activity toward glucose = 100%, 37° C., pH 7.0, 5 minutes, in the presence of oxygen, listed as maltotetraose
  Relative activity (%): about 60%

## OC[C@H]1O[C@@](CO)(O[C@H]2O[C@H](CO)[C@@H](O)[C@H](O)[C@H]2O)[C@@H](O)[C@@H]1O [Sucrose]
[1]; pH 7
  Relative activity (%): 0%
[1]; [7]
  effect of the saccharide oxidase on the substrate (in words): No effect

## Acremonium chrysogenum NBRC30055-derived saccharide oxidase (Hapsidospora chrysogenum ATCC 11550)
[2]
  Km: 8 mM

## Lactose monohydrate
[1]
  effect of the saccharide oxidase on the substrate (in words): satisfactory effect

## Maltoheptaose
[1]; [8]
  Relative activity (%): 24%

## Maltohexaose
[1]; [8]
  Relative activity (%): 28%

## Maltopentaose
[1]; [8]
  Relative activity (%): 39%

## Maltose monohydrate
[1]
  effect of the saccharide oxidase on the substrate (in words): satisfactory effect

## Maltotriose
[1]; [7]
  effect of the saccharide oxidase on the substrate (in words): satisfactory effect
[1]; [8]
  Relative activity (%): 92%
[1]; saccharide as substrate, activity toward glucose = 100%, 37° C., pH 7.0, 5 minutes, in the presence of oxygen, listed as maltotriose
  Relative activity (%): about 92%

B1: Saccharide oxidase: protein having saccharide oxidase activity purified from Acremonium chrysogenum NBRC30055, about 63 kDa, amino acid sequence SEQ. ID. NO:10 (protein, listed as Acremonium chrysogenum)
chain: MRSLAPLLSIAALARASPVDTSLLTRQETLNTCLEAAELSYVDVNSEDWEDAIVPHNLRVPVVPRAVVYATATEQIQAAVKCAVESEIRVSAKSGGHSYASMGLGGEDGSLVIQLDHWHDVTLRDDNTAVVSAGTRLGVVALELYAQGKRGISHGTCPSVGVGGHVVHGGYGFSSHTHGLALDAVVGANVVLADGSLVHASETENTDLFWALRGGGSSFGIVAEFEFETFDVSHNFSYFSIDSDISQETAEEATASLLAFQDALEEGLMDRKLNMRLSLGRPKVTLEAVYHGAKEDGRKALELFDDILGLNWSSNRTRANEADWLTMLESWTYGDPLNITYPYEGHDNAYTSSLVTRHIPEDAMASFMTYWKGVGQDRETPNWWLQMDVHGDANSRISEVDADSTAYSHRDKLWLFQFSSPLNPLRPDPEAAFALVNGYMDSIKDHLGDGEWGRYANYIDSELSREDAQTQYWSDHLDKLQAIKAELDPTQVFYNPQSIDPAAVE
[3]; 54 and 56° C., 1, 3, 5 and 8 minutes
  residual enzyme activity in desugared egg white after heat treatment: no substantial reduction in the activity
[3]; 58° C. for 5 minutes or longer, compared with the glucose oxidase
  residual enzyme activity in desugared egg white after heat treatment: significant reduction in the activity
[4]; 15 minutes at 45° C., pH7.0, no heat treatment = 100%
  residual activity after heat treatment: ≥ 80%
[4]; heat treatment for 15 minutes
  temperature up to which stability was observed: up to 45 °C
[5]
  production of lactobionic acid from lactose: production of the lactobionic acid was verified
[6]
  residual activity after pH treatment: ≥ 85%
